Molecular target: T1, Bcl-2 protein (Recombinant Human Bcl-2 Protein) (Homo sapiens, UniProt P10415)
T1 construct: purchased Novus NBP2-34889
Experiment: Binding evaluation of mixture library compounds to Bcl-2 using AS-MS (affinity selection mass spectrometry)
Conditions: for ASMS ratio (%) n = 1 / ASMS ratio (%) n = 2: ASMS Ratio(%)=(A−C)/B×100; for ASMS ratio (%) n = 1: replicate n = 1; for ASMS ratio (%) n = 2: replicate n = 2
How it was run: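 ASMS Ratio (%) was calculated as (A−C)/B×100, where A is the protein sample after SEC, B the protein-free sample without SEC and C the protein-free sample after SEC. Each compound was at […] in a 1200-member pool with 20 μM Bcl-2, incubated 1 h at 23° C.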

[1] = AS-MS on the mixture of 1200 library compounds
[2] = AS-MS, mixture of 1200 compounds, Bcl-2

T1 sequence (P10415 whole entry): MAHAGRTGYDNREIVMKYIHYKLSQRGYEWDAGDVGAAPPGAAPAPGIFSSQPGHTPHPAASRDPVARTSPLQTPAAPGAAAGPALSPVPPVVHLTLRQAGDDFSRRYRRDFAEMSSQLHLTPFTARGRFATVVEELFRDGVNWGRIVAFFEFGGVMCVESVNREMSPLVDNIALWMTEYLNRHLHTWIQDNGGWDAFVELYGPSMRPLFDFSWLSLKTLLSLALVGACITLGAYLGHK

Row | Molecule | ASMS ratio (%) n = 1 [1] | ASMS ratio (%) n = 2 [1] | ASMS ratio (%) n = 1 (AS-MS, mixture library, Bcl-2) | ASMS ratio (%) n = 2 (AS-MS, mixture library, Bcl-2) | also measured
1 | CCOc1cncc(-c2ccc(C(=O)N3CCN(c4ccc(C(=O)Nc5ccc(OC)cc5)nn4)CC3)cc2C)c1 [B1O004-01, 6-[4-[4-(5-Ethoxypyridin-3-yl)-3-methylbenzoyl]piperazin-1-yl]-N-(4-methoxyphenyl)pyridazine-3-carboxamide] | 2.8% | 0.4% | – | – | –
2 | CCOc1cccc(C#Cc2ccccc2CN2CCN(c3ccc(C(=O)Nc4ccc(OC)cc4)cc3)CC2)c1 [B1O069-01, 4-[4-[[2-[2-(3-Ethoxyphenyl)ethynyl]phenyl]methyl]piperazin-1-yl]-N-(4-methoxyphenyl)benzamide] | 6.2% | −2.4% | – | – | –
3 | CCOc1cncc(-c2ccc(C(=O)N3CCN(c4ccc(C(=O)NS(=O)(=O)CCC(F)(F)F)nn4)CC3)c3ccccc23)c1 [B2N014-01, 6-[4-[4-(5-Ethoxypyridin-3-yl)naphthalene-1-carbonyl]piperazin-1-yl]-N-(3,3,3-trifluoropropylsulfonyl)pyridazine-3-carboxamide] | – | – | – | – | ASMS ratio (%) (n = 1): 0.0%; ASMS ratio (%) (n = 2): 0.0%
4 | CCOc1cncc(-c2cnn(-c3cc(C(=O)N4CCN(c5ccc(C(=O)NS(=O)(=O)CC67CC8CC(CC(C8)C6)C7)cc5)CC4)cc(C(F)(F)F)c3)c2)c1 [B2A044-01, N-(1-Adamantylmethylsulfonyl)-4-[4-[3-[4-(5-ethoxypyridin-3-yl)pyrazol-1-yl]-5-(trifluoromethyl)benzoyl]piperazin-1-yl]benzamide] | – | – | 0.7% | −0.2% | –
5 | CCOc1cccc(-c2ccc(CN3CCN(c4ccc(C(=O)NS(=O)(=O)C(C)(C)C)nn4)CC3)cc2C)c1 [B2L073-01, N-tert-Butylsulfonyl-6-[4-[[4-(3-ethoxyphenyl)-3-methylphenyl]methyl]piperazin-1-yl]pyridazine-3-carboxamide] | – | – | – | – | ASMS ratio (%) (n = 1): 0.0%; ASMS ratio (%) (n = 2): 0.0%
6 | CCOc1cccc(-c2ccc(CN3CCN(c4ccc(C(=O)Nc5ccc(OC)cc5)nn4)CC3)cc2C)c1 [B1O073-01, 6-[4-[[4-(3-Ethoxyphenyl)-3-methylphenyl]methyl]piperazin-1-yl]-N-(4-methoxyphenyl)pyridazine-3-carboxamide] | 2.0% | 3.7% | – | – | –
7 | CCOc1cncc(C#Cc2cc(C(=O)N3CCN(c4ccc(C(=O)N(CC)CC)cc4)CC3)cc(C(F)(F)F)c2)c1 [B4J042-01, 4-[4-[3-[2-(5-Ethoxypyridin-3-yl)ethynyl]-5-(trifluoromethyl)benzoyl]piperazin-1-yl]-N,N-diethylbenzamide] | 1.0% | 0.0% | – | – | –
8 | CCOc1cncc(-c2csc(CN3CCN(c4ccc(C(=O)NS(=O)(=O)c5ccc(NCCSc6ccccc6)c([N+](=O)[O-])c5)nn4)CC3)c2)c1 [B2Q094-01, 6-[4-[[4-(5-Ethoxypyridin-3-yl)thiophen-2-yl]methyl]piperazin-1-yl]-N-[3-nitro-4-(2-phenylsulfanylethylamino)phenyl]sulfonylpyridazine-3-carboxamide] | – | – | 7.2% | 2.5% | –
9 | 6-[4-[3-[2-(3-Ethoxyphenyl)ethynyl]-5-(trifluoromethyl)benzoyl]piperazin-1-yl]-N-propylpyridazine-3-carboxamide [B1M013-01] | – | – | – | – | ASMS ratio (%) n = 1 [2]: 2.9%; ASMS ratio (%) n = 2 [2]: −1.1%
10 | CCOc1cncc(C#Cc2ccccc2C(=O)N2CCN(c3ccc(C(=O)NS(=O)(=O)CC45CC6CC(CC(C6)C4)C5)cc3)CC2)c1 [B2A030-01, N-(1-Adamantylmethylsulfonyl)-4-[4-[2-[2-(5-ethoxypyridin-3-yl)ethynyl]benzoyl]piperazin-1-yl]benzamide] | – | – | 0.0% | 0.3% | –
11 | CCOc1cccc(-c2csc(C(=O)N3CCN(c4ccc(C(=O)NS(=O)(=O)c5ccc(NCCSc6ccccc6)c([N+](=O)[O-])c5)cc4)CC3)c2)c1 [B2Q023-01, 4-[4-[4-(3-Ethoxyphenyl)thiophene-2-carbonyl]piperazin-1-yl]-N-[3-nitro-4-(2-phenylsulfanylethylamino)phenyl]sulfonylbenzamide] | – | – | 0.0% | 0.0% | –
12 | CCOc1cncc(-c2ccc(CN3CCN(c4ccc(C(=O)N(CC)CC)nn4)CC3)c(CC)c2)c1 [B4J076-01, 6-[4-[[4-(5-Ethoxypyridin-3-yl)-2-ethylphenyl]methyl]piperazin-1-yl]-N,N-diethylpyridazine-3-carboxamide] | – | – | 0.0% | 0.0% | –
13 | CCOc1cncc(-c2cc(C(=O)N3CCN(c4ccc(C(=O)NCC(F)(F)F)nn4)CC3)cc(C(C)(C)C)c2)c1 [B1K016-01, 6-[4-[3-tert-Butyl-5-(5-ethoxypyridin-3-yl)benzoyl]piperazin-1-yl]-N-(2,2,2-trifluoroethyl)pyridazine-3-carboxamide] | – | – | – | – | ASMS ratio (%) n = 1 [2]: 0.0%; ASMS ratio (%) n = 2 [2]: 0.0%
14 | CCOc1cncc(C#Cc2cc(C(=O)N3CCN(c4ccc(C(=O)Nc5ccc(OC)cc5)cc4)CC3)cc(C(F)(F)F)c2)c1 [B1O042-01, 4-[4-[3-[2-(5-Ethoxypyridin-3-yl)ethynyl]-5-(trifluoromethyl)benzoyl]piperazin-1-yl]-N-(4-methoxyphenyl)benzamide] | 2.8% | 2.1% | – | – | –
15 | CCOc1cncc(C#Cc2ccccc2CN2CCN(c3ccc(C(=O)N(C)CC45CC6CC(CC(C6)C4)C5)cc3)CC2)c1 [B3A070-01, N-(1-Adamantylmethyl)-4-[4-[[2-[2-(5-ethoxypyridin-3-yl)ethynyl]phenyl]methyl]piperazin-1-yl]-N-methylbenzamide] | 7.7% | −8.1% | – | – | –
16 | CCOc1cccc(-c2ccc(CN3CCN(c4ccc(C(=O)NS(=O)(=O)C(C)(C)C)nn4)CC3)c3ccccc23)c1 [B2L091-01, N-tert-Butylsulfonyl-6-[4-[[4-(3-ethoxyphenyl)naphthalen-1-yl]methyl]piperazin-1-yl]pyridazine-3-carboxamide] | – | – | – | – | ASMS ratio (%) (n = 1): 0.0%; ASMS ratio (%) (n = 2): 0.0%
17 | CCOc1cncc(C#Cc2ccccc2C(=O)N2CCN(c3ccc(C(=O)NS(=O)(=O)c4ccc(NCCSc5ccccc5)c([N+](=O)[O-])c4)cc3)CC2)c1 [B2Q030-01, 4-[4-[2-[2-(5-Ethoxypyridin-3-yl)ethynyl]benzoyl]piperazin-1-yl]-N-[3-nitro-4-(2-phenylsulfanylethylamino)phenyl]sulfonylbenzamide] | – | – | 6.6% | −4.1% | –
18 | CCOc1cncc(-c2cc(C(=O)N3CCN(c4ccc(C(=O)NS(C)(=O)=O)nn4)CC3)cc(C(F)(F)F)c2)c1 [B2I018-01, 6-[4-[3-(5-Ethoxypyridin-3-yl)-5-(trifluoromethyl)benzoyl]piperazin-1-yl]-N-methylsulfonylpyridazine-3-carboxamide] | – | – | 0.0% | 0.0% | –
19 | CCOc1cccc(-c2cc(C(=O)N3CCN(c4ccc(C(=O)NCC(F)(F)F)nn4)CC3)cc(C(F)(F)F)c2)c1 [B1K017-01, 6-[4-[3-(3-Ethoxyphenyl)-5-(trifluoromethyl)benzoyl]piperazin-1-yl]-N-(2,2,2-trifluoroethyl)pyridazine-3-carboxamide] | – | – | – | – | ASMS ratio (%) n = 1 [2]: 0.0%; ASMS ratio (%) n = 2 [2]: 0.0%
20 | CCOc1cncc(-c2ccc(CN3CCN(c4ccc(C(=O)N(C)CC56CC7CC(CC(C7)C5)C6)cc4)CC3)c3ccccc23)c1 [B3A066-01, N-(1-Adamantylmethyl)-4-[4-[[4-(5-ethoxypyridin-3-yl)naphthalen-1-yl]methyl]piperazin-1-yl]-N-methylbenzamide] | 6.3% | −2.9% | – | – | –
21 | CCOc1cccc(-c2cc(OC)c(CN3CCN(c4ccc(C(=O)N(CC)CC)nn4)CC3)c(OC)c2)c1 [B4J085-01, 6-[4-[[4-(3-Ethoxyphenyl)-2,6-dimethoxyphenyl]methyl]piperazin-1-yl]-N,N-diethylpyridazine-3-carboxamide] | – | – | 0.0% | 2.8% | –
22 | CCOc1cncc(-c2cc(CN3CCN(c4ccc(C(=O)NS(=O)(=O)CCC(F)(F)F)cc4)CC3)cc(OC(F)(F)F)c2)c1 [B2N064-01, 4-[4-[[3-(5-Ethoxypyridin-3-yl)-5-(trifluoromethoxy)phenyl]methyl]piperazin-1-yl]-N-(3,3,3-trifluoropropylsulfonyl)benzamide] | – | – | – | – | ASMS ratio (%) (n = 1): 0.0%; ASMS ratio (%) (n = 2): 0.0%
23 | CCOc1cccc(-c2ccc(C(C)N3CCN(c4ccc(C(=O)NCC(F)(F)F)cc4)CC3)cc2)c1 (centres unmarked) [B1K097-01, 4-[4-[1-[4-(3-Ethoxyphenyl)phenyl]ethyl]piperazin-1-yl]-N-(2,2,2-trifluoroethyl)benzamide] | – | – | – | – | ASMS ratio (%) n = 1 [2]: −2.1%; ASMS ratio (%) n = 2 [2]: −3.1%
24 | CCOc1cncc(-c2ccc(CN3CCN(c4ccc(C(=O)NS(=O)(=O)CCC(F)(F)F)cc4)CC3)c(OC)c2)c1 [B2N054-01, 4-[4-[[4-(5-Ethoxypyridin-3-yl)-2-methoxyphenyl]methyl]piperazin-1-yl]-N-(3,3,3-trifluoropropylsulfonyl)benzamide] | – | – | – | – | ASMS ratio (%) (n = 1): 0.0%; ASMS ratio (%) (n = 2): 0.0%
25 | CCOc1cncc(-c2ccccc2CCC(=O)N2CCN(c3ccc(C(=O)N(C)CC45CC6CC(CC(C6)C4)C5)nn3)CC2)c1 [B3A012-01, N-(1-Adamantylmethyl)-6-[4-[3-[2-(5-ethoxypyridin-3-yl)phenyl]propanoyl]piperazin-1-yl]-N-methylpyridazine-3-carboxamide] | 1.4% | −2.7% | – | – | –

— US20240132431A1, “METHOD FOR ALKYLATING ACIDIC FUNCTIONAL GROUP” (Chugai Seiyaku Kabushiki Kaisha, priority 2021, published 2024)
